Experimental data from US10919862B2, “Fused imidazoles as mIDH1 inhibitors” (BAYER PHARMA AKTIENGESELLSCHAFT, priority 2015, dated 2021).

Legend:
IDH1 R132H enzyme = IDH1 R132H enzyme (Homo sapiens (Human), UniProt O75874, R132H); assay: Mutant IDH1 R132H biochemical assay; details: NADPH consumption, luminescent readout; 1.5 nM enzyme, 1 μM NADPH, 250 μM α-KG, 30 minutes, 32° C.
Description: Mutant IDH1 R132H Biochemical Assay
mIDH1 catalyzes the NADPH-dependent reduction of alpha-ketoglutarate (α-KG) to (2R)-2-hydroxyglutarate (2-HG). NADPH consumption was measured by luminescent readout.
The biochemical reactions were performed at 32° C. in 384-well plates using a reaction volume of 41 μL and the following assay buffer conditions: 50 mM Tris pH 7.5, 100 mM NaCl, 20 mM MgCl2, 0.05% BSA, 0.01% Brij, 1 μM NADPH, and 250 μM α-KG. The IDH1 R132H enzyme was used in a final concentration of 1.5 nM. Test compounds were used in a concentration range between 0.002 and 10 μM. The final DMSO concentration was 2.4%.
The reaction was incubated for 30 minutes, then 40 μL of detection mix (0.75 μg/ml Luciferase, 0.02 U/ml Oxidoreductase, 4 μg/mL FMN, 2 μL/ml decanal/ethanol, 50 mM Tris pH 7.5, 0.5% Glycerin, 0.01% Tween-20, 0.05% BSA) was added. Luminescence was measured on a luminescent reader (10 seconds measuring time, 1 second integration period, 30% sensitivity). The decrease in luminescence is proportional to mIDH1 activity. IC50 values are determined by interpolation from plots of relative luminescence versus inhibitor concentration.

LN229 R132H cells = assay: Mutant IDH1 cellular assay; format: cell-based; details: Homo sapiens, LN-229; 2-HG levels in medium of LN229 R132H cells, 24 hours, fluorescence readout
Description: Mutant IDH1 Cellular Assay
Levels of (2R)-2-hydroxyglutarate (2HG) were measured in medium of a cell line with overexpression of mutated isocitrate dehydrogenase (mIDH) protein. mIDH catalyzes the NADPH-dependent reduction of alpha-ketoglutarate to 2-HG. Cells (LN229 R132H, Mohrenz et al., Apoptosis (2013) 18:1416-1425) were grown in DMEM containing 10% FCS. They were harvested by trypsin and seeded into 96-well plates. Cells were incubated overnight at 37° C. in 5% CO2. The next day test compounds were added to each cell well. The final concentration of DMSO was 0.1% and DMSO controls were included. The plates were then placed in an incubator for 24 hours.
2-HG was measured according to Balss et al. (Acta Neuropathol (2012) 124: 883-891). Briefly, perchloric acid was added to each well and the plates were centrifuged. Aliquots are removed and incubated with hydroxyglutarate dehydrogenase (HGDH), diaphorase, NAD+, and resazurin. The conversion of resazurin to resorufin was detected by fluorescence spectroscopy at Ex 540 nm Em 600 nm. The increase in fluorescence is proportional to 2-HG production. IC50 values are determined by interpolation from plots of relative fluorescence vs inhibitor concentration.

IDH1 R132H enzyme, sequence (O75874 whole entry R132H): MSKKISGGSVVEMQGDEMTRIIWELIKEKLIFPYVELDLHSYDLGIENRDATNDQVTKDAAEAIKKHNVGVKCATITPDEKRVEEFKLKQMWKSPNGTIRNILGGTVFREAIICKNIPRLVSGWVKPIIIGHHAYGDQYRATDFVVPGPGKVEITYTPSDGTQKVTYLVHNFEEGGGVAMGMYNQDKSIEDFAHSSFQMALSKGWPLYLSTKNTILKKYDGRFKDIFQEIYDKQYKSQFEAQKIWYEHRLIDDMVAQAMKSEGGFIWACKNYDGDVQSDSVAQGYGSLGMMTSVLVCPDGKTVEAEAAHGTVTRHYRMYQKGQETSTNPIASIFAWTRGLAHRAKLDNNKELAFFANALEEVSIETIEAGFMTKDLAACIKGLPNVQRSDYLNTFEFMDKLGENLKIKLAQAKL

Structure (SMILES) | IC50 (IDH1 R132H enzyme) [µM] | IC50 (LN229 R132H cells) [µM]
CC1(C)C[C@@H](CO)C[C@@H](n2c(Nc3ccc(OC(F)(F)F)cc3)nc3cc(CCC(=O)O)ccc32)C1 [Example 2-3, 3-(1-[(1R,5R)-5-(hydroxymethyl)-3,3-dimethylcyclohexyl]-2-{[4-(trifluoromethoxy)-phenyl]amino}-1H-benzimidazol-5-yl)propanoic acid] | 0.18 | 1.2
C[C@H]1C[C@@H](n2c(Nc3ccc(OC(F)(F)F)cc3)nc3cc(CCC(=O)O)ccc32)CC(C)(C)[C@@H]1O [Example 2-5, 3-(1-[(1R,4R,5S)-4-hydroxy-3,35-trimethylcyclohexyl]-2-{[4-(trifluoromethoxy)-phenyl]amino}-1H-benzimidazol-5-yl)propanoic acid] | 4.1 | 
CC1(C)C[C@@H](n2c(Nc3ccc(OC(F)(F)F)cc3)nc3cnccc32)C[C@@](C)(CO)C1 [Example 2-6, [(1 S,5R)-1,3,3-trimethyl-5-(2-{[4-(trifluoromethoxy)phenyl]amino}-1H-imidazo-[4,5-c]pyridin-1-yl)cyclohexyl]methanol] | 0.03 | 1.6
C[C@H]1C[C@@H](n2c(Nc3ccc(OC(F)(F)F)cc3)nc3cc(C(=O)O)ccc32)CC(C)(CO)C1 (stereo partly drawn) [Example 2-1, 1-[(1R,5R)-3-(hydroxymethyl)-3,5-dimethylcyclohexyl]-2-{[4-(trifluoromethoxy)-phenyl]amino}-1H-benzimidazole-5-carboxylic acid] | 0.5 | 
C[C@H]1C[C@@H](n2c(Nc3ccc(OC(F)(F)F)cc3)nc3cc(CCC(=O)O)ccc32)CC(C)(CO)C1 (stereo partly drawn) [Example 2-4, 3-(1-[(1R,5R)-3-(hydroxymethyl)-3,5-dimethylcyclohexyl]-2-{[4-(trifluoromethoxy)-phenyl]amino}-1H-benzimidazol-5-yl)propanoic acid] | 0.27 | 2.2
C[C@H]1C[C@@H](n2c(Nc3ccc(OC(F)(F)F)cc3)nc3cc(C(=O)O)ccc32)CC(C)(C)[C@@H]1O [Example 2-2, 1-[(1R,4R,5S)-4-hydroxy-3,3,5-trimethylcyclohexyl]-2-{[4-(trifluoromethoxy)-phenyl]amino}-1H-benzimidazole-5-carboxylic acid] | 4.8 | 
